Measurements: US20060009487A1, “Heterocyclic derivatives for treatment of hyperlipidemia and related diseases” (priority 2004, published 2006)

| Compound | melting point [°C] |
| --- | --- |
| Cc1nc2ccccc2c(-c2ccccc2)c1CC(NC(=O)CCCC(=O)O)C(=O)NCCCCN (centres unmarked) [D9, 4-[1-(4-Amino-butylcarbamoyl)-2-(2-methyl-4-phenyl-quinolin-3-yl)-ethylcarbamoyl]-butyric acid] | 129 |
| N=C(N)NCCNc1c(C(=O)O)cnc2ccccc12 [E5, n=1, 4-(2-Guanidino-ethylamino)-quinoline-3-carboxylic acid] | 267 |
| Nc1c(C(=O)O)cnc2ccccc12 [F3, 4-Amino-quinoline-3-carboxylic acid] | 305 |

Continued, values first:

| melting point [°C] | Compound |
| --- | --- |
| 269 | O=C(O)c1cnc2ccccc2c1NCCCNc1ncccn1 [E6, n=2, R=H, 4-[3-(Pyrimidin-2-yl-amino)-propylamino]-quinoline-3-carboxylic acid] |
| 108 | CCOC(=O)c1cnc2ccccc2c1NCCCCCNc1ncccn1 [E6, n=4, R═CH2CH3, 4-[5-(Pyrimidin-2-ylamino)-pentylamino]-quinoline-3-carboxylic acid ethyl ester] |
